Measurements reported in patent US20090137517A1, “SENSITIZING A CELL TO CANCER TREATMENT BY MODULATING THE ACTIVITY OF A NUCLEIC ACID ENCODING RPS27L PROTEIN” (Agency for Science, Technology and Research, priority 2006, published 2009).

Experiments:
Format in all cases: cell-based, human
HCT116 cells [1] = assay: Cytokinesis blocked micronucleus (CBMN) assay; conditions: RPS27L-depleted HCT116 cells, ADR (1 μM) 24 h
Procedure: In order to examine DNA damage directly, the comet assay was used next. The comet assay is a single cell gel electrophoresis assay in which damaged DNA migrates to form a “comet tail” that is proportional to the amount of DNA damage (Collins, A. R. (2004) “The comet assay for DNA damage and repair: principles, applications, and limitations” Mol Biotechnol, vol. 26, p. 249-261). Cells were incubated with ADR for 24 h and were harvested and processed for the comet assay. […] We then investigated whether elevated DNA damage has caused chromosome instability. […]
After treatment with ADR, cells were incubated with cytochalasin B (Sigma, 5 μg/ml) for an additional 22 h. […] Fixed cells were dropped onto clean slides and stained with 3 μg/ml Acridine Orange (which differentially stains cytoplasm and nucleus) (Hande, M. P., et al. (1996) “Induction and persistence of cytogenetic damage in mouse splenocytes following whole-body X-irradiation analysed by fluorescence in situ hybridization. II. Micronuclei.” Int J Radiat Biol.; vol. 70(4), p. 375-83; Hande, M. P., et al. (1997) “Induction and persistence of cytogenetic damage in mouse splenocytes following whole-body X-irradiation analysed by fluorescence in situ hybridization. III. Chromosome malsegregation/aneuploidy” Mutagenesis, vol. […] One thousand binucleated cells were scored for each sample.

HCT116 cells [2] = assay: Alkaline single cell gel electrophoresis (comet) assay; conditions: RPS27L-depleted versus control HCT116 cells, ADR 24 h
Procedure: In order to examine DNA damage directly, the comet assay was used next. […] Cells were incubated with ADR for 24 h and were harvested and processed for the comet assay.
The treated cells were subjected to a single cell gel electrophoresis (comet) assay as described earlier (Poonepalli, A., Balakrishnan, L., et al. (2005), supra) and stained with SYBR green dye. The tail moment of the comets was generated using the Metasystems (Germany) analysis software ‘Comet imager version 1.2’. Fifty randomly chosen comets were analyzed per sample. The extent of DNA damage observed was expressed as tail moment, which corresponded to the fraction of the DNA in the tail of the comet.

p53 and p21 = assay: Western blot of p53 and p21 protein levels in HCT116 cells; conditions: ADR (1 μM), 5-FU (375 μM), nutlin-3 (10 μM)
Procedure: (§1) To investigate whether the p53-induced increase in RPS27L mRNA also gives rise to the increased protein levels, immunoblot analysis of p53 wild-type and p53 null HCT116 cells treated with ADR, 5-FU or nutlin-3, a small molecule MDM2 antagonist that directly activates p53 (Vassilev, L. T., Vu, B. T., et al. (2004) “In vivo activation of the p53 pathway by small-molecule antagonists of MDM2” Science, vol. 303, p. 844-848) was performed. […] To extend this observations to other cell lines and to other p53 stimuli, U2OS (human osteosarcoma cell line) and SH-SY5Y (human neuroblastoma cell line) cells (p53 wild type) as well as Saos-2 cells (human osteosarcoma cell line, p53-deficient) were treated with ADR, etoposide phosphate (VP16®) and 5-FU (FIG. 2B). […] Obviously, 5-FU treatment activates a posttranslational mechanism that causes RPS27L protein downregulation in spite of the increased mRNA expression.
(§2) Cells were harvested and lysed with RIPA buffer (50 mM Tris-HCl, pH7.4, 1 mM EDTA, 150 mM NaCl, 1% Nonidet P-40, 0.5% sodium deoxycholate and proteinase inhibitors). The lysates were clarified by centrifugation at 16,000×g for 15 minutes at 4° C. Protein concentrations were determined with the Bradford Protein Assay Kit (Bio-Rad). 20-50 μg protein samples were separated by SDS-PAGE, transferred onto an Immobilon membrane (Millipore) and blotted with antibodies. Anti-p53 and anti-p21 antibodies were from Santa Cruz; anti-MDM2 and anti-Puma antibodies were from Merck. The rabbit polyconal antibody to RPS27L was raised against a 14 amino acid peptide from human RPS27L (SEQ ID NO: 2: LHPSLEEEKKKHKK).

RPS27L protein = assay: Western blot of RPS27L protein in U2OS, SH-SY5Y and Saos-2 cells; conditions: U2OS and SH-SY5Y (p53 wild type), Saos-2 (p53-deficient); VP16 (10 μM), ADR (1 μM), 5-FU (375 μM)
Procedure: as §1, §2

For `COc1cccc2c1C(=O)c1c(O)c3c(c(O)c1C2=O)C[C@@](O)(C(=O)CO)C[C@@H]3O[C@H]1C[C@H](N)[C@H](O)[C@H](C)O1` [ADR, adriamycin], the micronucleus frequency (HCT116 cells [1]) was “increased micronucleus frequency”, the “DNA damage (comet tail moment)” value (HCT116 cells [2]) was “significantly enhanced” and the “p53 and p21 protein” value (p53 and p21) was “accumulation of p53 and p21”. The RPS27L protein level (RPS27L protein) was “p53-dependent upregulation of RPS27L protein”.
